{
  "source": "ChEMBL document CHEMBL5375988",
  "about": "“AcGlcAs: A Novel P53-Targeting Arsenical with Potent Cellular Uptake and Cancer Cell Selectivity” (J Med Chem, 2023)",
  "key": {"[1]": {"experiment": "Toxicity in M-NSG mouse xenografted with human U-937 cells harboring p53 V272M mutant assessed as reduction in body weight at 25 mg/kg, ip administered for 11 days and measured on day 18", "type": "organism-based", "details": "in vivo, 432 h, time 18 day"}, "[2]": {"test_system": "Cellular tumor antigen p53 (Homo sapiens), P04637 [V272M]", "experiment": "Thermostabilization of recombinant p53 V272M mutant (unknown origin) […] assessed as increase in melting temperature at 1:15 ratio in HEPES at pH 7.5 by DSF analysis"}, "NB-4 [3]": {"test_system": "NB-4", "experiment": "Induction of apoptosis in human NB4 cells assessed as viable cells at 9 uM preincubated for 1 hrs followed by replacement with fresh culture medium and measured after 24 hrs by Annexin V-FITC/7AAD staining based flow cytometry assay (reference value: 94%)", "type": "functional", "details": "read-out: Activity"}, "U-937 [4]": {"test_system": "U-937", "experiment": "Induction of senescence in human U-937 cells overexpressing p53-V272M mutant assessed as upregulation of PML gene expression by RT-qPCR analysis", "type": "functional, cell-based"}, "NB-4 [5]": {"test_system": "NB-4", "experiment": "Induction of apoptosis in human NB4 cells assessed as late apoptotic cells at 9 uM preincubated for 1 hrs followed by replacement with fresh culture medium and measured after 24 hrs by Annexin V-FITC/7AAD staining based flow cytometry assay (reference value: 3.71%)", "type": "functional"}, "NB-4 [6]": {"test_system": "NB-4", "experiment": "Induction of granulocytic differentiation in human NB4 cells assessed as CD11b positive cells at 3 uM incubated for 1 hrs followed by replacement with fresh culture medium for 48 hrs by flow cytometry analysis relative to control", "type": "functional"}, "[7]": {"experiment": "Drug uptake in human HPDE6c7 cells at 10 uM measured after 10 mins by ICP-MS analysis", "type": "ADME, cell-based", "details": "hpde6c7, 10 min"}, "[8]": {"experiment": "Chemical stability of compound in PBS at 10 uM incubated for 1 hr by LC-MS analysis", "type": "physicochemical", "details": "buffer"}, "NB-4 [9]": {"test_system": "NB-4", "experiment": "Induction of apoptosis in human NB4 cells assessed as viable cells at 27 uM preincubated for 1 hrs followed by replacement with fresh culture medium and measured after 24 hrs by Annexin V-FITC/7AAD staining based flow cytometry assay (reference value: 94%)", "type": "functional", "details": "read-out: Activity"}, "U-937 [10]": {"test_system": "U-937", "experiment": "Induction of intrinsic apoptosis in human U-937 cells overexpressing p53-V272M mutant assessed as upregulation of PUMA gene expression by RT-qPCR analysis", "type": "functional, cell-based"}, "U-937 [11]": {"test_system": "U-937", "experiment": "Induction of intrinsic apoptosis in human U-937 cells overexpressing p53-V272M mutant assessed as upregulation of BAX gene expression by RT-qPCR analysis", "type": "functional, cell-based"}, "NCI-H1299": {"test_system": "NCI-H1299", "experiment": "Upregulation of p21 protein expression in human NCI-H1299 cells overexpressing p53-V272M mutant pretreated for 1 hr followed by culturing in fresh medium for 16 hrs by Western blot analysis", "type": "functional, cell-based"}, "[12]": {"experiment": "Toxicity in M-NSG mouse xenografted with luciferase transduced human U-937 cells harboring p53 V272M mutant assessed as reduction in body weight at 10 mg/kg, iv measured for 8 days post administration", "type": "organism-based", "details": "in vivo, 192 h, time 8 day"}, "[13]": {"target": "PML-RARalpha (Homo sapiens) (UniProt P10276+P29590)", "sequence (P10276 whole entry, looked up)": "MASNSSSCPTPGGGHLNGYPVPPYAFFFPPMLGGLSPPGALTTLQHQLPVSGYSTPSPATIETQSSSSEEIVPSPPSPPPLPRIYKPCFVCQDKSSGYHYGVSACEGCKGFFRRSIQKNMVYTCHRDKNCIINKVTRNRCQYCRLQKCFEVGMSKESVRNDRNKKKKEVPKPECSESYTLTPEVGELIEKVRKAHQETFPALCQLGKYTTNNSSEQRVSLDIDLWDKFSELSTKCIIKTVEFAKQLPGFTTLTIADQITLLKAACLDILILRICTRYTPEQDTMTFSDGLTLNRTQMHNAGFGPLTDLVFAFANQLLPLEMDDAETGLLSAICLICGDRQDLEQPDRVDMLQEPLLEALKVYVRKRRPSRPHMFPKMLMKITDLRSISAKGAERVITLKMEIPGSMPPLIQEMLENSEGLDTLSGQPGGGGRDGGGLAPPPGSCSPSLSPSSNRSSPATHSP", "sequence (P29590 whole entry, looked up)": "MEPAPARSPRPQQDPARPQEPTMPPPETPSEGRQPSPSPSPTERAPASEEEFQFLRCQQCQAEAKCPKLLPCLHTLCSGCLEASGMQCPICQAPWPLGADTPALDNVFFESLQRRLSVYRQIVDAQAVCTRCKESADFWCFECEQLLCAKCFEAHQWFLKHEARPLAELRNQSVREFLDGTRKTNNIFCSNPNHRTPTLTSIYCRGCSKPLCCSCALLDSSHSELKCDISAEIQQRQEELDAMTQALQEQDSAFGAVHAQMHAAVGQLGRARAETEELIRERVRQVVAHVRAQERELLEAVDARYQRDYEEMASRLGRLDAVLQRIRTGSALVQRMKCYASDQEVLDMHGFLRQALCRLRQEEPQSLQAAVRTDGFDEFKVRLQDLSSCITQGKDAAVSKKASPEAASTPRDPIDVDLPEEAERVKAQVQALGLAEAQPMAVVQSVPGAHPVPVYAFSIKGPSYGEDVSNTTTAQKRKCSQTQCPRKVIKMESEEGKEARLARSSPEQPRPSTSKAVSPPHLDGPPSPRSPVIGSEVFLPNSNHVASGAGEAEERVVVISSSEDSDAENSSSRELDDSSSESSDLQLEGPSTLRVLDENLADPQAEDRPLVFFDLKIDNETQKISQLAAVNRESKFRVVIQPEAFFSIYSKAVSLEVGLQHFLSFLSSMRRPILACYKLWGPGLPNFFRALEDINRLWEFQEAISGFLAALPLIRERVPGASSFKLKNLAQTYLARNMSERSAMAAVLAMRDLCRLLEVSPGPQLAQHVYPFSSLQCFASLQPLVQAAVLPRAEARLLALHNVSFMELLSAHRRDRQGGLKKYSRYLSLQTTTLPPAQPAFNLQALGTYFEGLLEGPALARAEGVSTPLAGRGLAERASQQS", "experiment": "Induction of PML/RARalpha degradation in human NB4 cells assessed as residual protein level at 3 uM incubated for 1 hrs followed by replacement with fresh culture medium and measured after 16 hrs by Western blot analysis (reference value: 1)", "type": "cell-based"}},
  "note": "Active and inactive are the calls of the source. The calls are words filed in the database; no cut-off is given here.",
  "data": [
    {"smiles": "CC(=O)OC[C@H]1O[C@@H](S[As]2SCCS2)[C@H](OC(C)=O)[C@@H](OC(C)=O)[C@@H]1OC(C)=O", "values": [
      {"measurement": "Activity", "setting": "[1]", "value": "Non-Toxic"},
      {"measurement": "Activity", "setting": "[2]", "value": "inactive"},
      {"measurement": "viability at 9 µM", "setting": "NB-4 [3]", "value": 85.6, "unit": "%"},
      {"measurement": "Activity", "setting": "U-937 [4]", "value": "inactive"},
      {"measurement": "Activity", "setting": "NB-4 [5]", "value": 6.71, "unit": "%"},
      {"measurement": "Activity", "setting": "NB-4 [6]", "value": 32.9, "unit": "%"},
      {"measurement": "Drug uptake", "setting": "[7]", "value": "Active"},
      {"measurement": "Stability", "setting": "[8]", "value": "Stable"},
      {"measurement": "viability at 27 µM", "setting": "NB-4 [9]", "value": 54.1, "unit": "%"},
      {"measurement": "Activity", "setting": "U-937 [10]", "value": "Active"},
      {"measurement": "Activity", "setting": "U-937 [11]", "value": "Active"},
      {"measurement": "Activity", "setting": "NCI-H1299", "value": "Active"},
      {"measurement": "Activity", "setting": "[12]", "value": "Non-Toxic"},
      {"measurement": "Activity", "setting": "[13]", "value": 0.18}
    ]}
  ]
}
